How the values were obtained:
rabbit platelet = experiment: collagen-induced aggregation of washed rabbit platelets (turbidimetry); type: cell-based; conditions: comparison with norathyrol
Protocol: It is known that ADP, arachidonic acid, PAF and collagen treatment will lead to the aggregation of rabbit platelet. […] Using 10 μg/ml of collagen as inducer of platelet aggregation, tile replacement of the methoxy or hydroxy group on the C-3 by the 3-propylamino-2-hydroxypropoxyl group increases the inhibitory effect on platelet aggregation. The reaction mechanisms of 1,3,6,7,-tetraoxygenated xanthones and 3,4-dihydroxygenated xanthone inhibit the formation of A2 -thromboxane and the degradation of phosphoinositide, and inhibit the activity of A2 -thromboxane, respectively.
Based on the method of Teng et. al. (Ouyang, C. Biochem. Biophys. Acta. 1987, 924:375), rabbit platelets were washed with platelet-rich plasma which was adjusted with EDTA for anti-aggregation. Counted by Coulter Counter (model, ZM), the platelets were adjusted to a density of 4.5×10^8 platelets/ml by Tyrode's solution which contains 136.8 mM NaCl, 2.8 mM KCl, 1.0 mM CaCl2 and 11.2 mM glucose, and 0. 35% bovine serum albumin. Platelets were agitated at a speed of 1200 rpm to form a suspension. All xanthone derivatives tested were dissolved in DMSO. The concentration of DMSO was limited to 0.5% to prevent its interference to the aggregation reaction. The aggregation was assayed by O'Brin's turbidometer. To determine the degree of aggregation, the absorbance of platelet suspension was referred as 0% aggregation and that of the platelet […] was used for 100%. Lumiaggregometer (Chromo-Log Co. USA) was used to carry out the aggregation assay.

rat's thoracic aorta = experiment: contraction of rat's thoracic aorta induced by calcium/high potassium or norepinephrine
anesthetized rats = experiment: blood pressure and heart beat of anesthetized rats after i.v. injection; type: in vivo; conditions: for blood pressure of anesthetized rats: anesthetized rat
[1] = target: angiotension I converting enzyme; experiment: inhibition of angiotension I converting enzyme; type: biochemical; conditions: read-out: IC50 toward angiotension I converting enzyme
[2] = system: atrioventricular conduction; conditions: literature report; cited from earlier work
myocardiac cells = conditions: literature report; cited from earlier work
peripheral blood vessels = conditions: literature report; cited from earlier work
platelet = conditions: literature report; cited from earlier work

Sequence of angiotension I converting enzyme (P12821 30-1306): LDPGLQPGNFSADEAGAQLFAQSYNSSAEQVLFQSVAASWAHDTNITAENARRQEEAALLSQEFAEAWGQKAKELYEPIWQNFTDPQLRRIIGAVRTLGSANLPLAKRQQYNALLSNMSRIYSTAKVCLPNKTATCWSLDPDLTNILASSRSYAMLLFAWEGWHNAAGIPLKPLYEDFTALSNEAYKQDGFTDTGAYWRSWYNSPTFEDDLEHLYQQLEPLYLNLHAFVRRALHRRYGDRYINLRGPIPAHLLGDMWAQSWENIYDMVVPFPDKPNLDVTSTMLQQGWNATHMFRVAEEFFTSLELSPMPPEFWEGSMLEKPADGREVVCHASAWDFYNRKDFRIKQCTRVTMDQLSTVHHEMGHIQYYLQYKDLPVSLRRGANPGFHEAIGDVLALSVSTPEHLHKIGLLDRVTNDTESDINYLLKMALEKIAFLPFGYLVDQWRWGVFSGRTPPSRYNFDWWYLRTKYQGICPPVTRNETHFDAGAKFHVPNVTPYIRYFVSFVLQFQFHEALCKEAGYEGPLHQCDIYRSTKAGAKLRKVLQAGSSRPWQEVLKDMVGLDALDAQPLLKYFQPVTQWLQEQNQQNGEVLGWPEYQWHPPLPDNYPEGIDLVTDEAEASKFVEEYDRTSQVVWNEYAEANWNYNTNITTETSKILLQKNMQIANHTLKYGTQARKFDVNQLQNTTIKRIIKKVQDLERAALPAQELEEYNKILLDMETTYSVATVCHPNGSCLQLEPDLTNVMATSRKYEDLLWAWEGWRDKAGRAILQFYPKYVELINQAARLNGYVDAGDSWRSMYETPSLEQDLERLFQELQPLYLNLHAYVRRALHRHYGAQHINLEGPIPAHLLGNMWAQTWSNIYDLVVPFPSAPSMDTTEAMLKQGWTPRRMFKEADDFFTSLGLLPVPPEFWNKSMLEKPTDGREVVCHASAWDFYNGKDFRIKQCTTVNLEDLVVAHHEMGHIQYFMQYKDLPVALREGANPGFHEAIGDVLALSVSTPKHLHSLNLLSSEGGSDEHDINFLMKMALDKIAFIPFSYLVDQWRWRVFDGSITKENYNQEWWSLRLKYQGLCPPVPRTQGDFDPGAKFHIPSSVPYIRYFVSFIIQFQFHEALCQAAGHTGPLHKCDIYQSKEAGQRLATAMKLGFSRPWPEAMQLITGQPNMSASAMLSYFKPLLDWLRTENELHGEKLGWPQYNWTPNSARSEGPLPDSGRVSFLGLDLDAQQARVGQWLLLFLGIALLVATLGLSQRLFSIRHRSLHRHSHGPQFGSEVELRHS

CC(=O)Oc1cc2oc3ccccc3c(=O)c2cc1OC(C)=O [2,3-dihydroxyxanthone diacetate, 2,3-Dihydroxyxanthone diacetate]
effect on inhibiting collagen-induced platelet aggregation, compared with norathyrol (rabbit platelet): more significant effect on inhibiting collagen-induced platelet aggregation than norathyrol

O=c1c2ccccc2oc2cc(O)c(O)cc12 [2,3-dihydroxyxanthone, 2,3-Dihydroxyxanthone]
inhibition of muscle contraction in rat's thoracic aorta induced by calcium ion at high potassium (rat's thoracic aorta; 100 μg/ml, 1.9 mM calcium ion, 80 mM potassium ion): significantly inhibit | inhibition of phasic or tonic muscle contraction induced by norepinephrine (rat's thoracic aorta; 100 μg/ml, 3 mM norepinephrine): significantly inhibit | blood pressure of anesthetized rats (anesthetized rats): significantly lowered the blood pressure

CC(=O)Oc1cc2oc3c(OC(C)=O)c(OC(C)=O)ccc3c(=O)c2cc1OC(C)=O [3 '4 '6 '7-Tetrahydroxyxanthone acetate]
effect on inhibiting collagen-induced platelet aggregation, compared with norathyrol (rabbit platelet): more significant effect on inhibiting collagen-induced platelet aggregation than norathyrol

CCCNCC(O)COc1ccc2c(=O)c3ccccc3oc2c1 (stereo not drawn) [3 [3-(propylamino)-2-hydroxypropoxy]xanthone]
heart beat of the anesthetized rat (anesthetized rats): slow down the heart beat | blood pressure of anesthetized rats (anesthetized rats): significantly reduce the blood pressure

O=c1c2cc(O)c(O)cc2oc2c(O)c(O)ccc12 [3,4,6,7-tetrahydroxyxanthone, 3,4,6,7-Tetrahydroxyxanthone]
IC50 [1]: 35.4 µM | blood pressure of anesthetized rats (anesthetized rats): reducing the blood pressure

O=c1c2ccccc2oc2cc(OCC(O)CNC3CCCCC3)ccc12 (stereo not drawn) [3-[3-(Cyclohexylamino)-2-hydroxypropoxy] xanthone]
effect on inhibiting collagen-induced platelet aggregation, compared with norathyrol (rabbit platelet): more significant effect on inhibiting collagen-induced platelet aggregation than norathyrol

CC(C)NCC(O)COc1ccc2c(=O)c3ccccc3oc2c1 (stereo not drawn) [3[3-(Isopropylamino)-2-hydroxypropoxyl)] xanthone]
inhibition of contraction of rat's thoracic aorta induced by high potassium (rat's thoracic aorta; 10^-4 M, potassium ion 100 mM): significantly inhibit the contraction | heart beat of the anesthetized rat (anesthetized rats): slow down the heart beat | blood pressure of anesthetized rats (anesthetized rats): significantly reduce the blood pressure

O=c1c2cc(O)c(O)cc2oc2cc(O)cc(O)c12 [norathyriol]
atrioventricular conduction of a rabbit [2]: significantly depress the atrioventricular conduction | inhibition of calcium influx in myocardiac cells (myocardiac cells): inhibit the calcium influx | relaxation of peripheral blood vessels (peripheral blood vessels): strongly relax the peripheral blood vessels

CC(=O)Oc1cc(OC(C)=O)c2c(=O)c3cc(OC(C)=O)c(OC(C)=O)cc3oc2c1 [norathyrol acetate]
inhibition on platelet aggregation (platelet): strong inhibition on platelet aggregation

tripteroside acetate
inhibition on platelet aggregation (platelet): strong inhibition on platelet aggregation

Source: patent US5495005A, “Synthesis and pharmacological activity of a series of novel xanthone derivatives” (National Science Council, priority 1993, dated 1996)
